The record followed here is article PMC6658140 (ACS catalysis, 2019).

The target of experiment [1] is TropB (Talaromyces stipitatus, UniProt B8M9J8, R206Q). As to the kind of experiment: change in absorbance at […] nm. The experiment is classed as binding.
In experiment [2] the target is TropB (Talaromyces stipitatus, UniProt B8M9J8). Put plainly: change in absorbance at […] nm. The experiment is classed as binding.

SMILES strings stand for the structures.

Sequence of TropB (Talaromyces stipitatus, UniProt B8M9J8) (B8M9J8 whole entry): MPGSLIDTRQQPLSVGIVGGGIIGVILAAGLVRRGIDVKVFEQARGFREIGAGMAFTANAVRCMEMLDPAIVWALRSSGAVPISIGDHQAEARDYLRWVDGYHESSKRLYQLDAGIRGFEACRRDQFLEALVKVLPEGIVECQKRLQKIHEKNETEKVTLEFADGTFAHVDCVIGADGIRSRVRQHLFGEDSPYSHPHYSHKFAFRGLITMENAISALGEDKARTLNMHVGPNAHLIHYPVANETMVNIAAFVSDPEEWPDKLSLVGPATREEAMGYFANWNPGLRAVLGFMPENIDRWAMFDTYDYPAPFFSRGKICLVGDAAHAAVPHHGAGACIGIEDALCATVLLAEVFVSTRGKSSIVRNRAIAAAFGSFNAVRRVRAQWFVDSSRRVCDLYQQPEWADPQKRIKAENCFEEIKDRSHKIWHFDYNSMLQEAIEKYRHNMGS
Sequence of TropB (Talaromyces stipitatus, UniProt B8M9J8, R206Q) (B8M9J8 whole entry R206Q): as the sequence (B8M9J8 whole entry) above, with R206Q counted along it

By Kd is commonly meant a measure of binding affinity in units of concentration. Lower therefore signals a tighter complex. As for `Cc1cc(O)c(C)c(O)c1C=O` [compound 1, 3-methylorcinaldehyde], the results for the Kd on TropB [1] and on TropB [2] were 32 ± 4 µM and 21 ± 2 µM, respectively.
